Converted amounts (≈) assume the structure as drawn. Where two headings read alike, the source gives them in different places. A value given as a limit tells only on which side of the number the result lay.

One series deals with A. flavus complex. The note with it: n = 6, EUCAST clinical breakpoints.
In series [1] the test system is Cryptococcus bacillisporus (AFLP5/VGIII). Briefly: E-test method. It is filed as cell-based.
In series [2] the test system is C. parapsilosis SC isolates. The series can be described thus: Candidemia survey Greece, susceptibility per hospital protocol. It is filed as cell-based, Candida parapsilosis species complex.
For series [3], the system named is C. albicans. Briefly: […] candidemia survey, susceptibility according to CLSI. It is filed as cell-based, Candida albicans.
Another series deals with C. auris. Briefly: ARIA surveillance, CLSI M27 broth microdilution. The note with it: CDC tentative breakpoints. Type of series: cell-based, Candida auris.
For another series, the system named is Candida sp. Type of series: cell-based.
The test system of another series is C. tropicalis. It is filed as cell-based, Candida tropicalis. The settings on record: all successive strains.
For series [4], the system named is C. albicans. Briefly: In vitro fluconazole susceptibility, neonatal invasive candidiasis. Type of series: cell-based, Candida albicans.
The next series relates to Candida non-albicans. The series is described as above. Type of series: cell-based.
Series [5] deals with A. terreus sensu stricto isolates. Briefly: AMB MIC (EUCAST) of isolates used for time-kill. It is filed as cell-based. The note with it: Aspergillus terreus. As for the experimental part:
Materials & Methods: Tolerance is the ability of a “susceptible isolate” to grow in the presence of AMB above the MIC; tolerant fungi are characterized by a longer minimum duration of killing time (MDK) than susceptible isolates. We investigated AMB-MDKs of A. terreus sensu stricto isolates (n = 4) representing susceptible (S < […]) and resistant (R > […]) phenotypes (EUCAST). Time-kill curve analysis (99% killing of the initial population) was performed in RPMI 1640 and AM3 media at different AMB concentrations, and in parallel, the germination rate was determined microscopically.

Series [6] relates to Candida sp. and other yeast isolates, planktonic. The series can be described thus: MIC of catheter yeast isolates, planktonic form. Type of series: cell-based. The settings on record: read-out: Minimum Inhibitory Concentrations (MIC).
Series [7] concerns sessile cells of yeast mono and dual-species biofilms. The series can be described thus: MIC of catheter yeast isolates, mono and dual-species biofilms. It is filed as cell-based. The note with it: range.
For a further series, the system named is Rhizopus arrhizus. The series can be described thus: E test. It is filed as cell-based.
In series [8] the test system is Cryptococcus bacillisporus (AFLP5/VGIII). Briefly: Treatment of a grey parrot with cryptococcosis. It is filed as in vivo, grey parrot (Psittacus erithacus). The settings on record: in drinking water, 600 mg per litre, after 6 months. An excerpt: Phenotypic and molecular analysis of the isolated yeast allowed the identification of Cryptococcus bacillisporus (AFLP5/VGIII) as the cause of the infection.

Series [9] has as its system Fusarium solani (FS) mature biofilms. The series can be described thus: XTT biofilm damage assay. It is filed as cell-based. As for the experimental part:
(§1) Materials & Methods: 10^5 cfu/mL of FS (n = 3) and SA (n = 3) BF-producing strains were incubated in RPMI at 37 °C for 48 h. PMN were isolated from healthy volunteers by dextran sedimentation/ficoll centrifugation. BF were incubated with PMN at effector-to-target ratio 5:1 alone or in combination with L-AMB (FS: 0.25/2/32 mg/L; SA: 0.25/1/16 mg/L) or VRC (FS: 8/64 mg/L; SA: 0.5/32 mg/L) at 37 °C/5% CO2 for 24 h. Antifungal activity was assessed by XTT reduction assay of metabolic activity. […] The % damage of the PMN+drug treatment was compared to that of PMN or drug alone by ANOVA (n = 8, p < 0.05).
(Formazan colour is commonly taken as a measure of viable cells.)

The subject of series [10] is Scedosporium apiospermum (SA) mature biofilms. Briefly: XTT biofilm damage assay. It is filed as cell-based. As for the experimental part:
as §1

In a further series the test system is Aspergillus tubingensis. The series can be described thus: EUCAST susceptibility. Type of series: cell-based. The note with it: read-out: MIC. As for the experimental part:
The fungus was identified as Aspergillus niger and liposomal amphotericine B was switched to anidulafungin pending susceptibility testing as the patient had pre-existing […] (eGFR CKD-EPI 40 mL/min/1.73 m²). […] Despite increasing the anidulafungin dosage to 200 mg daily and adequate voriconazol levels, serum galactomannan levels remained elevated (index 2.1 at discharge). […] Since no extracardiac sources were found and the patient did well clinically, they were discharched. Anidulafungin was switched to caspofungin to facilitate ongoing IV treatment in the outpatient setting. […] The patient died shortly after. Obduction was not performed.

The nature of series [11]: Voriconazole exposure during ECMO, retrospective. Type of series: in vivo, human.
Another series has as its system F. solani (FS) biofilms. The series can be described thus: Mature biofilm damage, XTT metabolic reduction assay. The settings on record: Fusarium solani, 24 h, read-out: BF MIC50.
A further series deals with Asp. flavus. Briefly: Triazole resistance agar screening, four-well plate. The settings on record: RPMI agar, 1 µg/mL, 29 isolates.
The test system of a further series is Asp. fumigatus. The series is described as above. The settings on record: RPMI agar, 1 µg/mL, 7 isolates.
Series [12] concerns Aspergillus isolates (total). The series is described as above. The note with it: RPMI agar, 1 µg/mL, 50 isolates.
Experimental: (§2) All the isolates were identified phenotypically. […] Fungal spores were suspended in normal saline (0.85%) and adjusted to 0.5 McFarland and 50 μL was plated in each well. […] Plates were incubated at 35–37 °C for 72 h in ambient air. The presence or absence of growth was observed visually at 24 h, 48 h, and 72 h.

Experimental for Asp. flavus: as §2
Experimental for Asp. fumigatus: as §2

Consider `CCC(C)n1ncn(-c2ccc(N3CCN(c4ccc(OCC5COC(Cn6cncn6)(c6ccc(Cl)cc6Cl)O5)cc4)CC3)cc2)c1=O` (stereo not drawn) [itraconazole], for which the isolates resistant in the series with A. flavus complex turned out to be 17%.

As to `OC(Cn1cncn1)(Cn1cncn1)c1ccc(F)cc1F` [fluconazole], the antifungal susceptibility entry in [1] is reported as “low response”. In series [2], this molecule came in with a Resistance of 20%. In the series on C. albicans [3], this molecule returned a non-susceptibility of 1%. Besides, the susceptible in the series on C. auris is 56.3%. In addition, the “Susceptibility to fluconazole (share of isolates)” value in the series on Candida sp. (2019) was 66%; with Candida sp. (full 12 month period in 2020), 82%; with Candida sp. (overall, entire period reviewed), 74%; in the series on Candida sp. (to date in January–April 2020), 100%. In addition, the susceptibility category result in the series with C. tropicalis was “susceptible”. The dose-dependent susceptible pathogens amounted to 0% with C. albicans [4] and 6% with Candida non-albicans. For the same molecule, the “in vitro resistant pathogens” value is 7% in the series on C. albicans [4] and 6% with Candida non-albicans. The “increase of clearance per 100 g increase in actual bodyweight” value (in vivo) is recorded as 16%. Further, the “decrease of clearance per 10 µmol/L increase in creatinine concentration” value (once postnatal age was above 1 week) stood at 12%. Besides, the volume of distribution (one-compartment model, typical infant of 0.87 kg) worked out at 0.844 L. In addition, the estimated clearance (one-compartment model, typical infant of 0.87 kg, serum creatinine 60 µmol/L, 41 preterm neonates, 146 plasma samples) is on record as 0.0147 L/h.

`C[C@@H]1[C@H](O)[C@@H](C)/C=C/C=C/C=C/C=C/C=C/C=C/C=C/[C@H](O[C@@H]2O[C@H](C)[C@@H](O)[C@H](N)[C@@H]2O)C[C@@H]2O[C@](O)(C[C@@H](O)C[C@@H](O)[C@H](O)CC[C@@H](O)C[C@@H](O)CC(=O)O[C@H]1C)C[C@H](O)[C@H]2C(=O)O` [amphotericin B]: the MIC in [5] (A. terreus 81 and 31, each) is 1 µg/mL (≈ 1.08 µM); in [5] (A. terreus 134), 4 µg/mL (≈ 4.33 µM); in [5] (A. terreus 164), 0.5 µg/mL (≈ 0.541 µM); in series [6] it was 30 to 1000 µg/mL; in [7] it was 0.25 to 8 µg/mL; with Rhizopus arrhizus, above 32 µg/mL. Besides, the clinical response result in [8] was “good response”.

As for `C[C@@H](c1ncncc1F)[C@](O)(Cn1cncn1)c1ccc(F)cc1F` [voriconazole], the MIC50 was above 256 µg/mL in series [9] (Fusarium solani, read-out: BF MIC50 (≥50% BF damage), XTT, 24 h, 37 °C); 32 µg/mL in series [10] (Scedosporium apiospermum, read-out: BF MIC50 (≥50% BF damage), XTT, 24 h, 37 °C); above 256 µg/mL with F. solani (FS) biofilms. Also, the “interaction of drug+PMN vs drug alone” value in series [9] (VRC 64 mg/L, PMN 5:1) is listed as “antagonism”. Further, the BF damage in series [10] (VRC 32 mg/L + PMN 5:1) stood at 69.5 ± 3%; in [10] (VRC 32 mg/L alone), 61 ± 4%. Moreover, in the series with Aspergillus tubingensis, the MIC worked out at 1 µg/mL (≈ 2.86 µM). Besides, the “samples with subtherapeutic concentration (<2 mg/L)” value was found to be 56% in [11] (during ECMO) and 39% in series [11] (without ECMO). Further, the “median trough concentration [IQR]” value in series [11] (under ECMO) was 2.4 [1.2–4.7] mg/L; in [11] (without ECMO), 2.5 [1.4–3.9] mg/L. In addition, the “isolates with growth only in voriconazole well, n (%)” value in the series with Asp. flavus (48 h) is 1 (3.44%); in the series with Asp. flavus (72 h), 11 (37.93%); in the series on Asp. fumigatus (48 h), 0; in the series with Asp. fumigatus (72 h) it was 3 (42.85); in series [12] (48 h), 1 (2%); in series [12] (72 h), 16 (32%).

Values taken from article PMC8624133, “10th Trends in Medical Mycology Held on 8 to 11 October 2021, Aberdeen, Scotland, Organized by the European Confederation of Medical Mycology (ECMM)” (Journal of Fungi, 2021).
